Source: ChEMBL document CHEMBL4680139, “Antiproliferative activity of diarylnaphthylpyrrolidine derivative via dual target inhibition” (Eur J Med Chem, 2020)

What was measured:
[1] = tested on: MDA-MB-231; assay: Induction of apoptosis in human MDA-MB-231 cells at 2.6 uM by propidium iodide staining based flow cytometry (reference value: 2.6 +/- 0.28%); assay type: functional
[2] = Toxicity in Swiss albino mouse assessed as haemoglobin level in blood at 50 mg/kg, po administered as single dose (reference value: 12.05 +/-0.88 gm/dl); assay type: organism-based; settings: in vivo
[3] = Toxicity in Swiss albino mouse assessed as SGPT level in serum at 300 mg/kg, po administered as single dose (reference value: 21.81 +/-2.1 U/L); assay type: organism-based; settings: in vivo
[4] = tested on: MCF7; assay: Induction of apoptosis in human MCF-7 cells assessed as proportion of late apoptotic cells at 2.17 uM measured after 24 hrs by Annexin V- FITC/propidium iodide staining based flow cytometry (reference value: 0.1%); assay type: functional
[5] = tested on: MDA-MB-231; assay: Induction of cell cycle arrest in human MDA-MB-231 cells assessed as accumulation at G2/M phase at 2.6 uM by propidium iodide staining based flow cytometry (reference value: 8.35 +/-0.07%); assay type: functional
[6] = tested on: MCF7; assay: Induction of apoptosis in human MCF-7 cells assessed as proportion of late apoptotic cells at 4.33 uM measured after 24 hrs by Annexin V- FITC/propidium iodide staining based flow cytometry (reference value: 0.1%); assay type: functional
[7] = tested on: MCF7; assay: Antiproliferative activity against human MCF-7 cells assessed as inhibition of cell growth measured after 48 hrs by SRB assay; assay type: functional, cell-based; settings: MCF7, 48 h
[8] = Toxicity in Swiss albino mouse assessed as total bilirubin level in serum at 5 mg/kg, po administered as single dose (reference value: 0.62 +/-0.05 mg/dl); assay type: organism-based; settings: in vivo
[9] = tested on: MDA-MB-231; assay: Induction of cell cycle arrest in human MDA-MB-231 cells assessed as accumulation at G2/M phase at 10.42 uM by propidium iodide staining based flow cytometry (reference value: 8.35 +/-0.07%); assay type: functional
[10] = molecular target: DNA topoisomerase 2-alpha (Homo sapiens) (UniProt P11388); assay: Inhibition of DNA-topoisomerase 2 in human MCF7 cells using kinetoplast DNA as substrate measured by ELISA; assay type: cell-based; settings: dose 4.33-17.32 µM
[11] = Toxicity in Swiss albino mouse assessed as triglyceride level in serum at 300 mg/kg, po administered as single dose (reference value: 78.34 +/-2.99 mg/dl); assay type: organism-based; settings: in vivo

DNA topoisomerase 2-alpha (Homo sapiens), sequence (P11388 whole entry): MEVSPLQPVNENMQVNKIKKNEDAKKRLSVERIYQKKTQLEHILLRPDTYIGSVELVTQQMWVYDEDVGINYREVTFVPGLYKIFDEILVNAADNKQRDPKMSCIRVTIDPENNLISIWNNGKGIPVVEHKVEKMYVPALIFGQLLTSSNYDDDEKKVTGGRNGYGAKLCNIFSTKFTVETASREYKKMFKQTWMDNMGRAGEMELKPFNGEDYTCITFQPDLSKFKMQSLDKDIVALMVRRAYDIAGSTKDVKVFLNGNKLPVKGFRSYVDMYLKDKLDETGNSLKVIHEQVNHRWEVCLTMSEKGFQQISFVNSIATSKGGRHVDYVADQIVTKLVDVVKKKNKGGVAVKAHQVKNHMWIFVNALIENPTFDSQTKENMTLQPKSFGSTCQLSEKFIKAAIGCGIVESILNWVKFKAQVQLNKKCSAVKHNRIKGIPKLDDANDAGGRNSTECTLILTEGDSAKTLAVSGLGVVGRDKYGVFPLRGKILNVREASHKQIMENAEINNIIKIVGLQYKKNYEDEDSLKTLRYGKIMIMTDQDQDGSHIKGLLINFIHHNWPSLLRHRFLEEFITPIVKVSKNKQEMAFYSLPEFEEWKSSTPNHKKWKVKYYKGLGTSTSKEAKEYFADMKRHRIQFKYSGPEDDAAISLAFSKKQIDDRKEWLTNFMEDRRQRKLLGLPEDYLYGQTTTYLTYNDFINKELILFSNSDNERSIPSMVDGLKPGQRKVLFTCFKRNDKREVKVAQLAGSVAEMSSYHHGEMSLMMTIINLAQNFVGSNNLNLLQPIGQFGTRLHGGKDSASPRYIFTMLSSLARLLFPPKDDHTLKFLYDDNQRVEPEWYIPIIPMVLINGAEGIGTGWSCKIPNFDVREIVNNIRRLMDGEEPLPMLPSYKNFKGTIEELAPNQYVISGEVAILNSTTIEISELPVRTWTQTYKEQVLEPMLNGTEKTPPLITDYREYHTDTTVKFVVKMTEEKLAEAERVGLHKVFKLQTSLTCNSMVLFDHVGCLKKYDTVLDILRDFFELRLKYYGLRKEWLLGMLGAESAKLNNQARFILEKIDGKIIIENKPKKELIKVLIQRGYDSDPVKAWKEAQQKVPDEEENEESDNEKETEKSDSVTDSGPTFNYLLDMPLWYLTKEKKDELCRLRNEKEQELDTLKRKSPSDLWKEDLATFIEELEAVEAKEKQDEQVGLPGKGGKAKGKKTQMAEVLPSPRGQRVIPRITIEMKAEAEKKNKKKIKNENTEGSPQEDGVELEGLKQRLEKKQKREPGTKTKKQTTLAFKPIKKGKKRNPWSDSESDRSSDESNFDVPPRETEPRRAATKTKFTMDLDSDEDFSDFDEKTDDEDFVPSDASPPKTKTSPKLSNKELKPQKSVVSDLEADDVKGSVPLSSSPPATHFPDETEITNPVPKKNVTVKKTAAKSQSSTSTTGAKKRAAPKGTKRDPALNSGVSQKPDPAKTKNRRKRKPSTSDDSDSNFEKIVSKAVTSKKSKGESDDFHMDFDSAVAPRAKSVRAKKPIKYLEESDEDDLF

## COc1ccc(C(c2ccccc2OCCN2CCCC2)c2cccc3ccccc23)c(OC)c1OC (stereo unspecified)
[1]
  Activity: 2.7%
[2]
  Activity: 9.96 g/dL
[3]
  Activity: 22.34 U/L
[4]
  Activity: 16.5%
[5]
  Activity: 10.35%
[6]
  Activity: 25.8%
[7]
  IC50: 4.33 µM
[8]
  Activity: 0.66 mg/dL
[9]
  Activity: 15.05%
[10]
  inhibition: Dose-dependent effect
[11]
  Activity: 106.09 mg/dL
